Assay results from a melting point compilation (Tetko et al.; mined from patent text by program, amines drawn as free bases though some values may be those of a salt).

Row | SMILES | melting point [°C]
1 | CC1(c2cccnc2F)OC(=S)N(Nc2ccccc2)C1=O (stereo not given) | 130 to 135
2 | COc1cc(C=C(Cl)Cl)nc(N)n1 | 90 to 91
3 | COc1cc(C(C)C)c2c(c1)S(=O)(=O)N(COc1cc(C(F)(F)F)nn1-c1ccc3ccccc3n1)C2=O | 124 to 125
4 | Cn1nccc1CCS(=O)Cc1ccc(OCc2coc(/C=C/c3ccc(C(F)(F)F)cc3)n2)cc1 (stereo not given) | 172 to 174
5 | CCOC(=O)C=Cc1csc(-c2ccc(OC)c(C(C)(C)C)c2)c1 | 119 to 120
6 | Cc1ccc(NC(=O)c2ccc(C(=O)Nc3ccccc3NC(=O)OC(C)(C)C)nc2)cc1Nc1nccc(-c2cccnc2)n1 | 186 to 187
7 | CC(=O)N(C)c1cc(N)cc(N(C)C(C)=O)c1 | 179 to 181
8 | CCCCCCCCCCCCCCCCCCN(CCCCCCCCCCCCCCCCCC)c1ccccc1 | 110 to 111
9 | Nc1ncc2cc(-c3c(Cl)cccc3Cl)c(=O)n(Cc3cccc(Br)c3)c2n1 | 215
10 | CC(=O)OCC1OC(n2cc(F)c(=O)[nH]c2=O)CC1OCc1ccccc1 (stereo not given) | 87 to 88
11 | CCCS(=O)(=O)c1ccc(NS(=O)(=O)c2cccs2)c2[nH]c(C(=O)OCC)cc12 | 201 to 202
12 | Nc1ccc2c(C3=CN4CCC3CC4)c[nH]c2c1 | 65 to 67
13 | O=S(=O)(Nc1nccnc1OCc1ccccn1)c1cccc(Cl)c1Cl | 167 to 168
14 | CN(c1cccc2cc(-c3ncc(CCC(=O)NS(C)(=O)=O)s3)[nH]c12)S(=O)(=O)c1cccs1 | 217 to 218
15 | CS(=O)(=O)c1ccc(-c2cc(C(=O)CCCO[N+](=O)[O-])nn2-c2ccc(F)cc2)cc1 | 134 to 136
16 | Cc1ccc(-c2ccc3c(c2)C=C(C(=O)Nc2ccc(CN(C)C4CCOCC4)cc2)CO3)cc1 | 143 to 145
17 | CCCn1nc(CC)c(C(=O)OC)c1Cc1ccc(-c2ccccc2S(N)(=O)=O)cc1 | 144
18 | Cc1ccn(-c2nccc3[nH]c(=O)ccc23)n1 | > 300
19 | CCCCCCNC(=O)[C@@H]1CCCN1C(=O)[C@@H](N)C(C)C | 105 to 106
20 | CSc1ccc(Oc2ccc([N+](=O)[O-])cc2)cc1 | 59 to 61
21 | CCCCc1ccc(NC(=O)Nc2ccc(S(N)(=O)=O)cc2)cc1 | 243 to 245
22 | O=C(NC1c2sc([N+](=O)[O-])cc2OCC1O)c1ccc(C(F)(F)F)cc1 (stereo not given) | 219 to 220
23 | CC(C)CCN1CCC(CNC(=O)c2cc(Cl)c(N)[nH]c2=O)CC1 | 131 to 135
24 | CCCCCCCNC(=O)N(C)c1cccc(-c2ccc(C=C(OCC)C(=O)O)cc2OCCCC)c1 | 103

Row | SMILES | melting point [°C]
25 | COc1ccc(C(N)C2(C(=O)O)C3CC4CC(C3)CC2C4)cc1 (stereo not given) | 205 to 213
26 | O=C1O[C@](CCc2cccc(O)c2)(C2CCCC2)CC(O)=C1N(c1ccccc1)c1ccccc1 | 90 to 92
27 | CCCCCCCCCCCCCCOc1cccc(CO)c1 | 49 to 50
28 | O=C1NN=C(c2cc3ccccc3o2)CO1 | 209 to 211
29 | CCCCc1ncc(CO)n1Cc1ccc(OCc2ccccc2C(=O)O)cc1 | 115 to 116
30 | CCc1nc(C(=O)NCC(C=C(C)C(CC)[N+](=O)[O-])=NO)c[nH]1 (stereo not given) | 75 to 79
31 | O=Cc1ccc(-c2ccc(Cl)cc2)cc1 | 108 to 112
32 | COC(=O)c1cc(NC(=N)N)c(NC(C)=O)cc1O | 233 to 234
33 | COc1ccc(-c2cnn(-c3cccc(C(=O)O)c3)c2)cc1 | 238 to 239
34 | CCc1nc2c(N)nc3cc(OCCc4c(C)n[nH]c4C)ccc3c2s1 | 195 to 197
35 | COc1ccc(-n2nc(O)c3c(c2=O)Cc2ccc(Cl)cc2N3)c(C)c1 | 264 to 266
36 | COc1nc(C)c(CC2CC2)c(C(O)c2cc(Cl)cc(C#N)c2)c1C(C)C (stereo not given) | 237 to 238
37 | O=C(O)C1CNC(C(=O)O)c2[nH]c3ccccc3c21 (stereo not given) | 230 to 231
38 | CC1(C)Oc2ccc(C#N)cc2C(N(C(N)=O)c2ccc3c(c2)CN(Cc2ccccc2)C3)C1O (stereo not given) | 168 to 175
39 | O=[N+]([O-])c1cn2c(n1)O[C@@H](COc1ccc3nc(N4CCN(Cc5ccc(OC(F)(F)F)cc5)CC4)sc3c1)CC2 | 157 to 159
40 | Cc1nc2c3c(ccn2c1C)C(=O)CC(c1ccccc1)N3 (stereo not given) | 138 to 140
41 | O=C(O)C1CCN(Cc2ccccc2)CC1 | 167 to 168
42 | Cc1c(-c2cc(Nc3cc4n(n3)CCN(C)C4)c(=O)n(CO)n2)cccc1N1Cc2cc(C(C)(C)C)sc2C1=O | 185 to 187
43 | O=C(CCCCCCn1ccc2ccc(NC(=O)OC3CCCC3)cc21)NS(=O)(=O)c1ccccc1 | 74 to 76
44 | CCCCCCCCCCCCCCCCCCOc1cc(C(=O)OC)cc(N(CC(=O)OCc2ccccc2)CC(=O)OCc2ccccc2)c1 | 62 to 63
45 | O=C(O)CSc1c(Cl)cc2c(-c3ccccc3F)noc2c1Cl | 165
46 | O=C(Cn1c(=O)sc2ccc(Cl)cc21)N1CCC(O)CC1 | 180
47 | Cc1cccc(C(=O)Nc2c[nH]nc2C(=O)NCCCO)n1 | 196 to 197
48 | COC(=O)c1c(SC)nn(C2CCCC2)c1N | 88 to 89

Row | SMILES | melting point [°C]
49 | O=P(O)(O)COc1ccc2c(c1)[nH]c1ccccc12 | 291
50 | COc1cccc(Cc2ccc3nc(N)nc(N)c3c2)c1 | 207 to 209
51 | COc1c(C)c2c(c(O)c1C/C=C(\C)C(CC(=O)O)OC)C(=O)OC2 (stereo not given) | 133 to 135
52 | NN(CCCCO)c1nc2ccccc2o1 | 87 to 90
53 | Cc1c(Cl)c(C(F)(F)F)nn1-c1cc(OS(C)(=O)=O)c(Cl)cc1F | 72 to 74.5
54 | O=C1CCCC2ON(Cc3ccccc3)C3C(CSC23)N1 (stereo not given) | 161 to 162
55 | NC(=O)c1cccc(O)c1F | 196 to 197
56 | CCOC(=O)C1=C(C)NC(CO)=C(C(=O)OCC)C1c1cccc([N+](=O)[O-])c1 (stereo not given) | 141 to 142
57 | N=c1cc(N)nc2n1CCS2 | 146 to 148
58 | O=C(CCCCCNC(=O)Cc1ccc(-c2ccccc2)cc1)NO | 226 to 227
59 | O=C(O)Cc1ccc2c(c1)CC(CCNS(=O)(=O)c1ccc(Cl)cc1)C2 (stereo not given) | 146 to 147
60 | COc1ccc(-n2nc(-c3ccc(OC)c(CCC(=O)O)c3OC)cc2-c2ccc(Cl)cc2)cc1 | 100 to 101
61 | Brc1cc2c(c(C34CC5CC(CC(C5)C3)C4)c1)OCO2 | 136
62 | CS(=O)(=O)C(=C1CN(C(c2ccc(Cl)cc2)c2ccc(Cl)cc2)C1)c1cccc(C(=O)NN2CCCCC2)c1 | 175
63 | CCCCc1nn(-c2ccc(C(F)(F)F)cn2)cc1C(=O)OCC | 58 to 59
64 | CC(=O)Cc1ccc(CC2SC(=O)NC2=O)cc1 (stereo not given) | 133 to 135
65 | COc1ccc(N2CCN(c3c(C)c(C)c4c(c3C)C(c3cccc5ccccc35)C(C)(C)O4)CC2)cc1 (stereo not given) | 165 to 166
66 | Cc1nnc(-c2nsc3ccc([N+](=O)[O-])cc23)s1 | 239 to 240
67 | O[C@@H]1CN(Cc2ccccc2)C[C@H]1Oc1ccc(OCc2ccccc2)cc1 (relative stereo) | 98 to 100
68 | CC1(C)CC(=O)C2=C(C1)NC1=C(C(=O)CC(C)(C)C1)C2c1ccc(C(F)(F)F)c(F)c1 | 296 to 300
69 | CC(C)NC(=O)Nc1ccc2c(c1Cl)C(c1ccccc1F)=NCC(=O)N2C | 130 to 140
70 | CCOC(=O)c1c([N+](=O)[O-])c(-c2ccc(Cl)cc2)n(OC)c1C(F)(F)F | 90 to 92
